Measured values published in patent US20250332181A1, “ANTIBIOTIC METHODS AND COMPOSITIONS” (AI BIO DISCOVERY LLC, priority 2024, published 2025).
“Also recorded” adds a separate entry of the source.

Legend:
[1] = test system: Klebsiella pneumoniae; assay: Disk diffusion test on Klebsiella pneumoniae; format: cell-based
Description: (§1) Applicants undertook two rounds of studies. The results of the first round are illustrated in FIGS. 1A-9B and discussed in the related text. The results of the second round of studies are illustrated in FIGS. 10-23 and discussed in the related text. When agar plating was required, both rounds of Applicants' studies were undertaken using similar disk diffusion methods on bacteria grown on agar substrates in Petri dishes. These methods conform to those prescribed by the Clinical & Laboratory Standards Institute (https://clsi.org).
(§2) Disk Diffusion tests with beta-lactam antibiotics with and without the beta-lactamase inhibitor of FIG. 1A. Closely spaced disks disclose possible synergistic or inhibitory effects between the antibiotics and the compound of FIG. 1A (labeled in FIGS. 4A-9B as Compound C). The distances between disks show the effectiveness of the possible synergy. […] Each disk contains either the compound of FIG. 1A or an antibiotic (one of FIGS. 3A-3D), or the compound of […] and an antibiotic (one of FIGS. 3A-3D). When a disk with the compound of FIG. 1A is in proximity to a disk with an antibiotic both agents diffuse into the bacterial growth medium, allowing us to observe the area where both agents are present at the same time. These disk diffusion tests were evaluated with the following:
(§3) As noted above, Applicants' studies were undertaken using similar disk diffusion methods on bacteria grown on agar substrates in Petri dishes. These methods conform to those prescribed by the Clinical & Laboratory Standards Institute (https://clsi.org).

[2] = test system: methicillin-resistant coagulase-negative Staphylococcus sps. (MRCoNS); assay: Disk diffusion test on MRCoNS; format: cell-based
Description: as §1, §2, §3

[3] = test system: MSSA (methicillin-sensitive Staphylococcus aureus); assay: Disk diffusion test on Staphylococcus aureus (MSSA); format: cell-based
Description: (§4) Applicants undertook two rounds of studies. […] When agar plating was required, both rounds of Applicants' studies were undertaken using similar disk diffusion methods on bacteria grown on agar substrates in Petri dishes. These methods conform to those prescribed by the Clinical & Laboratory Standards Institute (https://clsi.org). […]

[4] = test system: Escherichia coli; assay: Disk diffusion test on Escherichia coli; format: cell-based
Description: as §4

[5] = test system: Acinetobacter baumannii; assay: Disk diffusion test on Acinetobacter baumannii; format: cell-based
Description: as §4

[6] = test system: Citrobacter freundii; assay: Disk diffusion test on Citrobacter freundii; format: cell-based
Description: as §4

[7] = test system: Pseudomonas aeruginosa; assay: Disk diffusion test on Pseudomonas aeruginosa; format: cell-based; details: in combination with aztreonam
Description: as §4

[8] = test system: complicated urinary tract infection, including acute pyelonephritis; assay: Intravenous cefepime plus 5-Boronothiophene-2-carboxylic acid in patients with complicated urinary tract infection; format: in vivo, adult patients; details: cefepime 2.0 g + 5-Boronothiophene-2-carboxylic acid 0.5 g, intravenously over two hours every 8 hours, 7 days
Method: According to the disclosed invention, requisite amounts of both cefepime and 5-Boronothiophene-2-carboxylic acid are dissolved. Particularly, 2.0 g of cefepime are dissolved in sterile normal saline (0.9% sodium chloride) solution and 0.5 g of 5-Boronothiophene-2-carboxylic acid are dissolved in DMSO. Dissolution may be accelerated by use of an alcohol such as ethyl alcohol. Thereafter, a 2.5 g dose of a combination of cefepime (2.0 g) and 5-Boronothiophene-2-carboxylic acid (0.5 g) together with sterile normal saline (0.9% sodium chloride) as a diluent is administered to randomly assigned adult patients challenged with complicated urinary tract infection, including acute pyelonephritis, over a two-hour period with the dose being administered intravenously every 8 hours. A 1.0 g dose of a placebo is administered over 30-minute periods, every 8 hours also intravenously. The administration may be carried out over a period of 7 days.

[9] = in combination with ceftriaxone
[10] = in combination with ceftazidime

O=C(O)c1ccc(B(O)O)s1 [Compound C, 2-carboxythiophene-5-boronic acid]
enhancement of the action of ceftazidime ([1]; ceftazidime 30 μg + Compound C 15 μg): very strongly enhances; also recorded: strongly enhances | effectiveness of the combination with antibiotic ([1]; in combination with ceftazidime (second round)): enhanced effectiveness | effectiveness of the combination with antibiotic [1, 9]: enhanced effectiveness | effectiveness of the combination with antibiotic ([1]; in combination with meropenem (second round)): enhanced effectiveness | effect on the activity of meropenem ([1]; meropenem 10 μg + Compound C 15 μg): essentially no effect | effect on the activity of meropenem ([1]; meropenem 10 μg + Compound C 150 μg): only weakly enhances | antibacterial activity of the agent by itself ([1]; single agent disk, ceftazidime 30 μg, meropenem 10 μg, Compound C 15 μg): no activity on its own | effect on cefoxitin activity ([2]; cefoxitin 30 μg + Compound C 15 μg): does not enhance cefoxitin activity | effect on cefoxitin activity ([2]; cefoxitin 30 μg + Compound C 150 μg): inhibits cefoxitin antibiotic activity | effectiveness of the combination with antibiotic ([2]; in combination with ampicillin): enhanced effectiveness | effectiveness of the combination with antibiotic ([2]; in combination with penicillin G (second round)): enhanced effectiveness | activation of the antibiotic action of penicillin G ([2]; penicillin G 10 μg + Compound C 15 μg): strongly enables; also recorded: activates the antibiotic action of penicillin G | activation of the antibiotic action of penicillin G ([2]; penicillin G 10 μg + Compound C 150 μg): further activate penicillin G | antibacterial activity of the agent by itself ([2]; single agent disk, penicillin G 10 μg, cefoxitin 30 μg, Compound C 15 μg): no antibacterial activity | effectiveness of the combination with antibiotic ([3]; in combination with ampicillin): enhanced effectiveness | effectiveness of the combination with antibiotic ([3]; in combination with penicillin G): enhanced effectiveness | effectiveness of the combination with antibiotic ([4]; in combination with amoxycillin): enhanced effectiveness | effectiveness of the combination with antibiotic [4, 10]: enhanced effectiveness | effectiveness of the combination with antibiotic [4, 9]: enhanced effectiveness | effectiveness of the combination with antibiotic ([4]; in combination with meropenem): enhanced effectiveness | effectiveness of the combination with antibiotic [5, 10]: enhanced effectiveness | effectiveness of the combination with antibiotic ([5]; in combination with meropenem): enhanced effectiveness | effectiveness of the combination with antibiotic [6, 10]: enhanced effectiveness | effectiveness of the combination with antibiotic [6, 9]: enhanced effectiveness | effectiveness of the combination with antibiotic ([6]; in combination with meropenem): enhanced effectiveness | effectiveness of the combination with antibiotic [7]: enhanced effectiveness | microbiologic and clinical success [8]: both microbiologic and clinical success
